Experiments:
Format in all cases: cell-based
[1] = test system: Viable bacteria; assay: Bench-scale successive fermentations with yeast recycle stream from a molasses-based ethanol plant, viable bacteria enumerated
Protocol: In this example, samples of recycle streams comprising primarily inoculant yeast were collected from a molasses-based ethanol plant in Brazil. The samples were used to complete bench-scale fermentations in which the samples were treated with a combination of SCD (FermaSure® fermentation additive, E. I. du Pont de Nemours and Co., Wilmington Del.) with didecyl dimethyl ammonium chloride (BTC 1010, a solution of didecyl dimethyl ammonium chloride, DDAC, same as in Example 1), as quaternary compound. The treated samples were used to carry out successive 8-hour long fermentations, using recovered yeast at the end of each cycle to begin the next run. Viable bacteria were enumerated over 5 fermentation cycles. Results are provided in Table 3 where ND means the combination was not tested.

[2] = test system: lactic acid bacteria; assay: Molasses-based recycle stream treated with SCD, QAC or both: viable bacteria
Protocol: (§1) In this example, a molasses-based fermentation medium was prepared and inoculated with both yeast and lactic acid bacteria. The medium comprised various components as follows:
(§2) Following inoculation, the mixed culture was grown overnight in the molasses medium, after which a recycle stream was prepared by centrifuging the broth at 3000 rpm for 5 minutes. The resulting pellet was separated from the supernatant and reconstituted using sterile deionized water, then adjusted to pH 3.0 using sulfuric acid. 5 ml portions of the reconstituted pellet were then treated as follows: • 1. Untreated • 2. QAC only (60 ppm) • 3. SCD (45 ppm) • 4. SCD/QAC (45 ppm/60 ppm)
(§3) The SCD was FermaSure® fermentation additive, E. I. du Pont de Nemours and Co., Wilmington Del. The quaternary ammonium compound (QAC) was the same DDAC (BTC 1010, Stepan Company, Northfield, Ill.) as used in Example 1.
(§4) Samples were stored in a shaking incubator at 32° C. for 2 hours following which 0.1 ml aliquots were serially diluted and plated on selective media to enumerate surviving yeast and bacteria cells. […] Following this cycle, the SCD and SCD/QAC treated samples were centrifuged as before, and the number of viable yeast and bacterial cells in the resulting pellet was determined.

[3] = test system: yeast; assay: Molasses-based recycle stream treated with SCD, QAC or both: viable yeast; details: QAC only (60 ppm), pH 3.0, 32° C.
Protocol: as §1, §2, §3, §4

[4] = test system: Lactobacillus brevis; assay: Checkerboard assay of SCD with a quaternary ammonium compound against Lactobacillus brevis; parameters: key: no inhibition of growth (NI); partial inhibition (PI); complete inhibition (CI); details: SCD 0 ppm, MRS broth pH 5.5, 28 hours at 32° C.
Description: In this example, stabilized chlorine dioxide (SCD) and a quaternary ammonium chloride (QAC) mixture were used in a checkerboard assay to determine whether their interaction was synergistic against Lactobacillus brevis. The checkerboard assay method is used to analyze interactions between compounds by mixing them in increasing concentrations to determine whether the compounds act synergistically, additively or antagonistically. (See, M. Najjar, D. Kashtanov, M Chikindas, Letters in Applied Microbiology, vol. 45 (2007) 13-18.) L. brevis was cultured overnight in MRS broth (deMan Rogosa and Sharp broth, Difco Laboratories, Inc., Sparks, M.D.) at 32° C. The culture was then diluted and resuspended in fresh MRS broth adjusted to pH 5.5. The number of bacteria in the resuspended culture was determined using standard plate counts. Samples were diluted (1:10) in sterile phosphate-buffered saline (Sigma-Aldrich Co., St. Louis, Mo.) and plated onto the surface of MRS plates. The resuspended culture […] was then used to fill the wells of a 96 well plate (Becton, Dickinson and Co., Franklin Lakes, N.J.). SCD (FermaSure® fermentation additive, E. I. du Pont de Nemours and Co., Wilmington Del.) and a quaternary ammonium compound (BTC 1010, a solution of didecyl dimethyl ammonium chloride, DDAC, Stepan Company, Northfield, Ill.) were then added at the concentrations shown in the “checkerboard” plate diagram below. The plate was covered and incubated for 28 hours at 32° C. Following incubation, the plate was removed and the optical density of each well was determined using a plate reader at 630 nm (PowerWave, BioTek Instruments Inc., Winooski, Vt.). Based on the optical density, each well was scored to determine whether there was no inhibition of growth (NI), partial inhibition (PI), or complete inhibition (CI).
To determine whether any synergistic activity occurred between SCD and the quaternary ammonium compound, the fractional inhibitory concentration (FIC) was determined using the formula:
FIC=[SCD]/MICSCD+[DDAC]/MICDDAC
where [SCD] and [DDAC] are the concentrations of SCD and BTC 1010 that result in partial inhibition and MICSCD and MICDDAC are the minimum inhibitor concentration of SCD and DDAC, respectively. Synergy between the two antimicrobials is determined when the resulting FIC is <1.0.
In this example, SCD (FermaSure® fermentation additive, E. I. du Pont de Nemours and Co., Wilmington Del.) and a second quaternary ammonium compound (BTC 2125, a mixture of n-alkyl dimethyl benzyl ammonium chlorides and n-alkyl dimethyl ethylbenzyl ammonium chlorides, ADBAC/ADEBAC, Stepan Company, Northfield, Ill.) were used in a checkerboard assay to determine whether their interaction was synergistic against Lactobacillus brevis. L. brevis was cultured as above, resuspended in MRS at pH 5.5, and then added […] the wells of a 96 well plate (Becton Dickinson, Franklin Lakes, N.J.). […] Following incubation, the plate was removed and the optical density of each well was determined using a plate reader at 630 nm. Based on the optical density, each well was scored to determine whether there was no inhibition (NI), partial inhibition (PI), or complete inhibition (CI).
To determine whether any synergistic activity occurred between SCD and the ADBAC/ADEBAC quaternary ammonium compound, the fractional inhibitory concentration (FIC) was determined as above using the formula: […]

[5] = SCD 0 ppm, DDAC 60 ppm, yeast recycle stream, 8-hour fermentations

Compound: CCCCCCCCCC[N+](C)(C)CCCCCCCCCC.[Cl-] [DDAC, didecyl dimethyl ammonium chloride]
- Log Viable Bacteria Cycle 1 [1, 5]: 7.79
- Log Viable Bacteria Cycle 2 [1, 5]: 7.97
- efficacy against viable bacteria, in words ([1]; treatments of Table 3 (45 ppm SCD and 60 ppm DDAC; 60 ppm DDAC alone), through 5 cycles of fermentation): did not result in any significant inactivation of bacteria
- Viable Cells (2 hrs) Bacteria ([2]; QAC only (60 ppm), pH 3.0, 32° C., 2 hours): 8.1 logCFU per milliliter
- number of viable bacteria, in words ([2]; treatments of Table 4 (QAC 60 ppm, SCD 45 ppm, SCD/QAC 45 ppm/60 ppm)): did not result in any reduction in viable bacterial cells
- Viable Cells (2 hrs) Yeast [3]: 8.8 logCFU per milliliter
- inhibition of growth score based on optical density at 630 nm ([4]; DDAC 2 ppm): PI
- inhibition of growth score based on optical density at 630 nm ([4]; DDAC 4 ppm): PI
- inhibition of growth score based on optical density at 630 nm ([4]; DDAC 5 ppm): PI
- inhibition of growth score based on optical density at 630 nm ([4]; DDAC 6 ppm): PI
- inhibition of growth score based on optical density at 630 nm ([4]; DDAC 7 ppm): CI

From patent US20120322124A1, “CONTROL OF CONTAMINANT MICROORGANISMS IN FERMENTATION PROCESSES WITH SYNERGISTIC FORMULATIONS CONTAINING STABILIZED CHLORINE DIOXIDE AND QUATERNARY AMMONIUM COMPOUND” (E. I. DU PONT DE NEMOURS AND COMPANY, priority 2010, published 2012)
